In US20090048214A1, “Methods for Treating Renal Tumors Using 2, 4-Pyrimidinediamine Drug and Prodrug Compounds” (RIGEL PHARMACEUTICALS, INC, priority 2006, published 2009):

Tests used:
OVCAR-4 = experiment: cells; details: Homo sapiens
U251 = details: U251, CNS Cancer; besylate salt
SR [1] = experiment: cells; details: Homo sapiens
SR [2] = details: Leukemia, besylate salt
NCI-H460 = details: NCI-H460, Non-Small Cell Lung Cancer; besylate salt
HL-60(TB) [3] = experiment: cells; details: Homo sapiens
NCI-H522 = details: NCI-H522, Non-Small Cell Lung Cancer; besylate salt
786-0 [4] = experiment: cells; details: Homo sapiens
PC-3 = details: PC-3, Prostate Cancer; besylate salt
HL-60(TB) [5] = details: Leukemia, besylate salt
MALME-3M = experiment: cells; details: Homo sapiens
HCT-15 [6] = details: HCT-15, Colon Cancer; besylate salt
RPM1-8226 = experiment: cells; details: Homo sapiens
A549/ATCC [7] = experiment: cells; details: Homo sapiens, A549, read-out: LC50
MDA-MB-435 = experiment: cells; details: Homo sapiens
HCT-116 = details: HCT-116, Colon Cancer; besylate salt
SNB-19 = details: SNB-19, CNS Cancer; besylate salt
K-562 = details: K-562, Leukemia; besylate salt
EKVX [8] = details: Non-Small Cell Lung Cancer, besylate salt
SF-295 = details: SF-295, CNS Cancer; besylate salt
COLO 205 = experiment: cells; details: Homo sapiens
T-47D = experiment: cells; details: Homo sapiens, T47D, read-out: LC50
M14 = details: M14, Melanoma; besylate salt
HT29 = experiment: cells; details: Homo sapiens
HCT-15 [9] = experiment: cells; details: Homo sapiens, HCT-15, read-out: LC50
NCI-H23 = experiment: cells; details: Homo sapiens, NCI-H23, read-out: LC50
A549/ATCC [10] = details: Non-Small Cell Lung Cancer, besylate salt
RXF 393 [11] = details: RXF 393, Renal Cancer; besylate salt
EKVX [12] = experiment: cells; details: Homo sapiens
OVCAR-5 [13] = details: OVCAR-5, Ovarian Cancer; besylate salt
CCRF-CEM = experiment: cells; details: Homo sapiens, read-out: LC50
HS 578T = experiment: cells; details: Homo sapiens
OVCAR-8 = experiment: cells; details: Homo sapiens
MDA-MB-231/ATCC = details: Breast Cancer, besylate salt
RXF 393 [14] = experiment: cells; details: Homo sapiens
OVCAR-5 [15] = experiment: cells; details: Homo sapiens
MCF7 = details: MCF7, Breast Cancer; besylate salt
OVCAR-3 = details: OVCAR-3, Ovarian Cancer; besylate salt
SK-MEL-5 = experiment: cells; details: Homo sapiens
786-0 [16] = details: 786-0, Renal Cancer; besylate salt

COc1cc(Nc2ncc(F)c(Nc3ccc4c(n3)NC(=O)C(C)(C)O4)n2)cc(OC)c1OC [Compound 1]
IC50 (OVCAR-4; OVCAR-4, read-out: G150): > 100 µM | CC50 (OVCAR-4; OVCAR-4, read-out: LC50): > 100 µM | TGI (U251): >1.00E−4 | IC50 (SR [1]; read-out: G150): 3.56 µM | CC50 (SR [1]; read-out: LC50): > 100 µM | TGI (SR [2]): >1.00E−4 | TGI (NCI-H460): >1.00E−4 | IC50 (HL-60(TB) [3]; HL-60, read-out: G150): > 100 µM | CC50 (HL-60(TB) [3]; HL-60, read-out: LC50): > 100 µM | TGI (NCI-H522): >1.00E−4 | IC50 (786-0 [4]; 786-0, read-out: G150): 0.873 µM | CC50 (786-0 [4]; 786-0, read-out: LC50): > 100 µM | TGI (PC-3): >1.00E−4 | TGI (HL-60(TB) [5]): >1.00E−4 | IC50 (MALME-3M; read-out: G150): > 100 µM | CC50 (MALME-3M; read-out: LC50): > 100 µM | TGI (HCT-15 [6]): >1.00E−4 | IC50 (RPM1-8226; read-out: G150): > 100 µM | CC50 (RPM1-8226; read-out: LC50): > 100 µM | CC50 (A549/ATCC [7]): > 100 µM | IC50 (MDA-MB-435; MDA-MB-435, read-out: G150): 3.62 µM | CC50 (MDA-MB-435; MDA-MB-435, read-out: LC50): > 100 µM | TGI (HCT-116): >1.00E−4 | TGI (SNB-19): >1.00E−4 | TGI (K-562): >1.00E−4 | TGI (EKVX [8]): >1.00E−4 | TGI (SF-295): >1.00E−4 | IC50 (COLO 205; COLO 205, read-out: G150): 7.26 µM | CC50 (COLO 205; COLO 205, read-out: LC50): > 100 µM | CC50 (T-47D): > 100 µM | TGI (M14): >1.00E−4 | IC50 (HT29; HT-29, read-out: G150): 2.19 µM | CC50 (HT29; HT-29, read-out: LC50): > 100 µM | CC50 (HCT-15 [9]): > 100 µM | CC50 (NCI-H23): > 100 µM | TGI (A549/ATCC [10]): >1.00E−4 | TGI (RXF 393 [11]): 7.74E−7 | IC50 (EKVX [12]; read-out: G150): 1.66 µM | CC50 (EKVX [12]; read-out: LC50): > 100 µM | TGI (OVCAR-5 [13]): >1.00E−4 | CC50 (CCRF-CEM): > 100 µM | IC50 (HS 578T; read-out: G150): 1.19 µM | CC50 (HS 578T; read-out: LC50): > 100 µM | IC50 (OVCAR-8; OVCAR-8, read-out: G150): > 100 µM | CC50 (OVCAR-8; OVCAR-8, read-out: LC50): > 100 µM | TGI (MDA-MB-231/ATCC): >1.00E−4 | IC50 (RXF 393 [14]; RXF 393, read-out: G150): 0.196 µM | CC50 (RXF 393 [14]; RXF 393, read-out: LC50): > 100 µM | IC50 (OVCAR-5 [15]; OVCAR-5, read-out: G150): > 100 µM | CC50 (OVCAR-5 [15]; OVCAR-5, read-out: LC50): > 100 µM | TGI (MCF7): >1.00E−4 | TGI (OVCAR-3): >1.00E−4 | IC50 (SK-MEL-5; SK-MEL-5, read-out: G150): > 100 µM | CC50 (SK-MEL-5; SK-MEL-5, read-out: LC50): > 100 µM | TGI (786-0 [16]): >1.00E−4
